The subject of experiment [1] is Bacillus spizizenii. The experiment is described as follows: microbe, parasite or virus in culture. It is filed as functional. The conditions noted are these: ATCC 6633.
Description: Antibacterial activity against Bacillus subtilis ATCC 6633 by double microdilution assay
The nature of experiment [2]: Binding affinity to decoding site rRNA of ribosome in TNT rabbit reticulocyte lysate using luciferase T7 control DNA plasmid assessed as inhibition of translation incubated for 60 mins by luciferase reporter gene based coupled transcription/translation assay. More on the design: species or system Oryctolagus cuniculus. Background: In a reporter assay the amount or activity of a reporter protein is the signal.

The nature of experiment [3]: Binding affinity to decoding site rRNA of ribosome in Escherichia coli using Escherichia coli S30 circular DNA assessed as inhibition of translation incubated for 60 mins by luciferase reporter gene based coupled transcription/translation assay.
The subject of experiment [4] is Escherichia coli. The experiment is described as follows: microbe, parasite or virus in culture. The conditions noted are these: R477/100. Format: functional.
Description: Antibacterial activity against Escherichia coli R477/100 by double microdilution assay
Experiment [5] can be described thus: Binding affinity to decoding site rRNA of ribosome in Escherichia coli using Escherichia coli S30 circular DNA assessed as inhibition of translation incubated for 20 mins by luciferase reporter gene based coupled transcription/translation assay.

Values after ≈ are worked out from the molar mass of the structure shown.

One may read the IC50 as the concentration that gives 50% inhibition. In the case of `CN[C@@H]1[C@@H](O)[C@@H](O[C@@H]2[C@@H](O)[C@H](O[C@H]3O[C@H](CN)CC[C@H]3N)[C@@H](N)C[C@H]2N)OC[C@]1(C)O`, in experiment [1], the MIC is under 0.75 µM. Also, the IC50 in experiment [2] came out at 62 µM.
As to `NC[C@H]1O[C@@H](O[C@H]2[C@H](O)[C@@H](N)C[C@@H](N)[C@@H]2O[C@H]2O[C@H]([C@H](O)CO)[C@@H](O)[C@H](O)[C@H]2N)[C@H](O)[C@@H]1O`, the IC50 in experiment [3] came to 0.7 µM; in experiment [2] it was 7.5 µM. Besides, the MIC in experiment [1] was 34 µM (≈ 16.5 µg/mL); in experiment [4], over 273 µM.
The corresponding values for `N[C@H]1[C@@H](O[C@@H]2[C@@H](O)[C@H](O)[C@@H](N)C[C@H]2N)O[C@H]([C@@H](O)CO)[C@@H](O)[C@@H]1O` are 91.9 µM, 516 µM, over 375 µM and over 375 µM.
The corresponding values for `N[C@H]1[C@@H](O[C@@H]2[C@@H](O)[C@H](O)[C@@H](N)C[C@H]2N)O[C@H]([C@H](O)CO)[C@@H](O)[C@@H]1O` are 11 µM, 120 µM, 311 µM (≈ 110 µg/mL) and over 311 µM.
In the case of `C[C@@H](O)[C@H]1O[C@H](O[C@@H]2[C@@H](O)[C@H](O)[C@@H](N)C[C@H]2N)[C@H](N)[C@@H](O)[C@@H]1O`, the figures for the IC50 in experiment [3] and in experiment [2] were 6 µM and 347 µM, respectively.
Regarding `C[C@H](N)[C@H]1O[C@@H](O[C@H]2[C@H](O)[C@@H](N)C[C@@H](N)[C@@H]2O[C@H]2O[C@H]([C@H](O)CO)[C@@H](O)[C@H](O)[C@H]2N)[C@H](O)[C@@H]1O`, the IC50 in experiment [3] and in experiment [2] was 1.2 µM throughout. For the same compound, the MIC was 64 µM (≈ 31.9 µg/mL) in experiment [1] and over 257 µM in experiment [4].
Consider `C[C@H](N)[C@H]1O[C@@H](O[C@H]2[C@H](O)[C@@H](N)C[C@@H](N)[C@@H]2O[C@H]2O[C@H]([C@@H](C)O)[C@@H](O)[C@H](O)[C@H]2N)[C@H](O)[C@@H]1O`, for which the IC50 in experiment [3] is 1.1 µM; in experiment [2], 1.5 µM. The MIC came out at 156 µM (≈ 75.3 µg/mL) in experiment [1] and 1270 µM (≈ 611 µg/mL) in experiment [4].
As to `CN[C@@H]1[C@@H](O)[C@@H](O[C@H]2[C@H](O)[C@@H](O[C@H]3O[C@H](C(C)O)[C@@H](O)[C@H](O)[C@H]3N)[C@H](N)C[C@@H]2N)OC[C@]1(C)O` (some centres undefined), the IC50 in experiment [3] was 0.01 µM. Further, the figures for the MIC in experiment [1] and in experiment [4] were under 1.25 µM and 9 µM (≈ 4.47 µg/mL), respectively.
In the case of `N[C@H]1[C@@H](O[C@@H]2[C@@H](O)[C@H](O)[C@@H](N)C[C@H]2N)O[C@H](C(O)CO)[C@@H](O)[C@@H]1O` (mixture of isomers), in experiment [5], the IC50 is 24 µM.
On the same count and under the same terms, with `N[C@H]1[C@@H](O[C@H]2[C@H](O)[C@@H](O)[C@H](N)C[C@@H]2N)O[C@H](CO)[C@@H](O)[C@@H]1O` [PAROMAMINE] the figure was 3.9 µM.

For the origin of these results see ChEMBL document CHEMBL3808375, “Design of Novel Aminoglycoside Derivatives with Enhanced Suppression of Diseases-Causing Nonsense Mutations” (ACS Med Chem Lett, 2016).
